# Results published in patent US9649305B2, “PFKFB3 inhibitor and methods of use as an anti-cancer therapeutic” (ADVANCED CANCER THERAPEUTICS, LLC, priority 2012, dated 2017).
# Like-named read-outs stand apart in the source and are kept apart here.
# Columns and labels:
# Jurkat cells = assay: Inhibition of 14C-2-deoxyglucose uptake; format: cell-based; conditions: Homo sapiens, Jurkat cells
# Description: Inhibition of PFKFB3 results in inhibiting glycolysis. Several feedback or feedforward activation and inhibition mechanisms exist so that, by a feedback mechanism, inhibiting the activity of PFKFB3 might inhibit glucose uptake by cells. An assay was developed to determine if there was inhibition of glucose uptake following exposure PFK-158. Briefly, Jurkat cells were plated at 10^5 cells/mL in RPMI 1640 supplemented with 10% fetal bovine serum and 50 μg/mL gentamicin sulfate. Cells were immediately treated with vehicle or 0.5 μmol/L of PFK-158 for 3 hours and subsequently placed in glucose-free RPMI 1640 for 30 min. ^14C-2-deoxyglucose (0.25 μCi/mL; Perkin Elmer) was added for an additional 60 min and cells were then washed three times with ice-cold RPMI 1640 containing no glucose. Cell lysates were collected in 500 μL of 0.1% SDS and scintillation counts (counts/min) were measured on 400 μL of lysate. Counts were normalized to protein concentration.
# [1] = Toxicology study in dogs at 40 mg/kg; format: in vivo, beagle dogs
# Description: In another embodiment, the potential toxicity of PFK-158 (in the form of its dication) was investigated at 40 mg/kg in male and female beagle dogs using a 3 day a week for a total of three weeks dosing regimen. The potential toxicity of PFK-158 was investigated by monitoring all clinical signs during the in-life phase, taking blood and urine samples for full clinical chemistry panels and urinalysis, monitoring body weights and food intake. Gross necropsy and complete histopathology were performed at the time of termination.
# [2] = Photoisomerization in formulation; format: physicochemical; conditions: phospho-lipidic aqueous emulsion or emulsifier-free, solvent-free aqueous solution
# Text: Further, the solubility properties of PFK-158 are such that, if required, the compound can be administered using either a phospho-lipidic aqueous based emulsion, or in an emulsifier-free, solvent-free aqueous based solution.
# PFKFB3 = PFKFB3 (Homo sapiens, UniProt Q16875); assay: Enzymatic activity of recombinant PFKFB3, ADP-Glo assay; format: biochemical
# Description: The inducible bifunctional 6-Phosphofructo-2-kinase/fructose2,6-biphosphatase enzyme (PFKFB3) was expressed and purified in order to determine if PFK-158 inhibits enzymatic activity. PFKFB3 was prepared by expression in E. coli and purified by GST column and column chromatography. […] The recombinant protein was pure and active as determined by the results of a commercially available kinase activity assay (ADP-Glo™, Promega, Madison, Wis.).
# [3] = In vitro stability in human liver microsomes; format: in vitro ADME
# SK-BR-3 = assay: Cancer cell proliferation, MTT assay; format: cell-based; conditions: Homo sapiens; SK-BR-3, MTT assay, 48 hours
# Description: (§1) The ability of PFK-158 to kill or inhibit the proliferation of cancer cells was measured using either the MTT assay, the alamarBlue® assay (Invitrogen, Grand Island, N.Y.), or the CellTiter Glo™ assay (Promega, Madison, Wis.) using 48 or 72 hours exposure.
# (§2) Cells of the desired tumor cell line were plated at 2×10^5 cells/ml in 96 well plates. Twice the indicated concentrations of the compounds of the invention were added to cells the following day in an equal volume of media. 72 hours later, cells were lysed and subjected to ATP determination using the CellTiter-Glo™ Luminescent Cell Viability Assay kit. Experiments were performed in triplicate. When using the MTT assay or the alamarBlue® assay, the experimental conditions are essentially similar; at the end of the incubation period, 20 microliters of the MTT solution is added per well and the samples are incubated for an additional four hours, rinsed, and absorbance at 570 nm was measured. Results for the inhibition of cell proliferation are reported as the IC50 (the concentration resulting in 50% inhibition of proliferation of the cell population) and are listed in Table 5 below. Cell lines include lung, colon, prostate, breast, ovarian, and pancreatic cancer lines.
# BT474 = assay: Cancer cell proliferation, MTT assay; format: cell-based; conditions: Homo sapiens, BT-474, 48 hours
# Description: as §1, §2
# SW620 = assay: Cancer cell proliferation, MTT assay; format: cell-based; conditions: Homo sapiens, SW-620, 48 hours
# Description: as §1, §2
# SKOV-3 = assay: Cancer cell proliferation, MTT assay; format: cell-based; conditions: Homo sapiens, SK-OV-3; SKOV-3, MTT assay, 48 hours
# Description: as §1, §2
# PC-3 = assay: Cancer cell proliferation, MTT assay; format: cell-based; conditions: Homo sapiens; PC-3, MTT assay, 48 hours
# Description: as §1, §2
# A549 = assay: Cancer cell proliferation, MTT assay; format: cell-based; conditions: Homo sapiens, 48 hours
# Description: as §1, §2
# A498 = assay: Cancer cell proliferation, MTT assay; format: cell-based; conditions: Homo sapiens, 48 hours
# Description: as §1, §2
# HCT116 = assay: Cancer cell proliferation, MTT assay; format: cell-based; conditions: Homo sapiens, HCT-116, 48 hours
# Description: as §1, §2
# MiaPaCa-2 = assay: Cancer cell proliferation, MTT assay; format: cell-based; conditions: Homo sapiens, MIA PaCa-2; MiaPaCa-2, MTT assay, 48 hours
# Description: as §1, §2
# HT29 = assay: Cancer cell proliferation, MTT assay; format: cell-based; conditions: Homo sapiens, HT-29, 48 hours
# Description: as §1, §2
# [4] = system: Jurkat cell line (leukemia cell line); assay: Toxicity / cell growth of Jurkat cell line; format: cell-based; conditions: Homo sapiens
# Description: as §1, §2
# Chain of PFKFB3 (Q16875 whole entry): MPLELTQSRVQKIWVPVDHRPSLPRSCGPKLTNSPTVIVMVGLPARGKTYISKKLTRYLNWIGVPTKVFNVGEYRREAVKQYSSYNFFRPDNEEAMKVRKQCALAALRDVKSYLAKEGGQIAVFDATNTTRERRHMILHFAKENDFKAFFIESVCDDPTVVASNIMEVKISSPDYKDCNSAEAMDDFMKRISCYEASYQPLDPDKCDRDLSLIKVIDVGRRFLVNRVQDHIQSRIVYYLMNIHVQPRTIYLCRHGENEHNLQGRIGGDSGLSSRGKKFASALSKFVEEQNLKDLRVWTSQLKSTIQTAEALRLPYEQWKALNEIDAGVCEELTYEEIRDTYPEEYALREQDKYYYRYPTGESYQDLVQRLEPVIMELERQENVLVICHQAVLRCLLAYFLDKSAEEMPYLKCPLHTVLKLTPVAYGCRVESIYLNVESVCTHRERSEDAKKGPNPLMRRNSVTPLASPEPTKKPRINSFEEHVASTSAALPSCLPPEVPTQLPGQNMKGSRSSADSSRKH
compound,measurement,setting,value
"O=C(/C=C/c1ccc2ccc(C(F)(F)F)cc2n1)c1ccncc1 [PFK-158, (E)-1-(pyridyn-4-yl)-3-(7-(trifluoromethyl)quinolin-2-yl)-prop-2-en-1-one]",IC50,"Jurkat cells; FIG. 2, 14C-2-deoxyglucose, read-out: IC50, inhibition of glucose uptake",0.847 ± 0.15 µM
same,IC50,"Jurkat cells; Table 1, read-out: IC50, Inhibition of 2 deoxyglucose uptake",0.8 ± 0.1 µM
same,IC50,"Jurkat cells; Table 6, read-out: IC50 Glucose Uptake",0.847 ± 0.15 µM
same,signs of toxicity,"[1]; beagle dogs, 40 mg/kg three times a week for three weeks",no signs of toxicity
same,NOAEL at 3 weeks,"[1]; both sexes, beagle, dog, in vivo",40 mg/kg
same,Human Equivalent Dose (HED) of the NOAEL,"[1]; dog, in vivo",800 mg/m^2
same,photoisomerization in solution,[2],"does not, in the formulation mentioned above, undergo a rapid photoisomerization"
same,IC50,"PFKFB3; FIG. 1, read-out: IC50, inhibition of recombinant PFKFB3 (ADP-Glo)",0.137 ± 0.015 µM
same,IC50,"PFKFB3; Table 1, read-out: IC50, Enzymatic activity of PFKFB3, ADP Glo Assay",0.137 ± 0.015 µM
same,IC50,"PFKFB3; Table 6, read-out: IC50 Rec PFKFB3",0.137 ± 0.015 µM
same,IC50,"PFKFB3; Table 8, read-out: IC50, Enzymatic activity of PFKFB3, ADP-Glo Assay",0.137 ± 0.015 µM
same,Percent metabolized after 1 hr,[3],37%
same,IC50,SK-BR-3,1.6 µM
same,IC50,BT474,1.95 µM
same,IC50,SW620,2.67 µM
same,IC50,SKOV-3,2.62 µM
same,IC50,PC-3,1.18 µM
same,IC50,A549,8.65 µM
same,IC50,A498,3.51 µM
same,IC50,HCT116,3.4 µM
same,IC50,MiaPaCa-2,3.35 µM
same,IC50,HT29,4.13 µM
same,IC50,"[4]; Jurkat, Table 1, read-out: IC50, toxicity of Jurkat cell line (leukemia cell line)",0.33 ± 0.1 µM
same,IC50,"[4]; Table 6, Jurkat cells, read-out: IC50 Cell Growth",0.328 ± 0.015 µM
